The values below come from patent publication US7531320B2, “Modulation of β-catenin/TCF-activated transcription” (priority 2003, dated 2009).

One data set addresses T1, CBP (1-111) (Mus musculus, UniProt P45481).
T1 construct: 6xHis (C); HSV tag (C); expressed in transfected cells
The data set can be described thus: Pull-down of CBP deletion constructs on COMPOUND 2 coated beads, competition with excess COMPOUND 1. It counts as binding. To be noted: E. coli expressed 6x-His protein, 100 μM COMPOUND 2.

The target in another data set is T2, CBP (Homo sapiens, UniProt Q92793).
T2 construct: endogenous in cells; host or cells: SW480 nuclear extract
The data set can be described thus: COMPOUND 2 streptavidin-agarose affinity pull-down from SW480 nuclear extracts. The note with it: SW480 nuclear extract, immunoblotting with anti-CBP. It counts as binding. The method, then: FIG. 1. COMPOUND 1 inhibits β-catenin/TCF transcription. • A(i) and A(ii). Structures of COMPOUND 1, COMPOUND 2, COMPOUND 3, COMPOUND 4, and COMPOUND 5. • B(i) and B(ii). […] SW480 cells (10^5), (FIG. 1B(i)), were transfected with β-catenin/TCF luciferase construct. Cells were treated with COMPOUND 1 (1-64 μM). 24 hours post treatment lysates were prepared and subjected to dual luciferase assay. The data is represented in different form in FIG. 1B(ii). • C. COMPOUND 1 has no effect on NFAT reporter construct. Stably transfected Jurkat cells, right panel, with an NFAT reporter construct, were stimulated with PMA (10 ng/ml)/lonomycin (1 μg/ml), and treated with COMPOUND 1 (0.781-50 μM). 24 hours post treatment lysates were prepared and subjected to dual luciferase assay. All experiments were performed in duplicate and the values plotted as means +/−standard deviation. • D. CBP is the molecular target of COMPOUND 1. Nuclear extracts of SW480 cells were incubated with streptavidin-agarose beads coated with COMPOUND 2 (25 μM). Beads were washed 3 times and the eluted were subjected to gel electrophoresis and immunoblotting, with anti-CBP antibodies. […] The lysates were desalted using G-25 1 cc columns (Pharmacia) to remove the unbound ^14C-labeled-COMPOUND 1, and ^14C-labeled-COMPOUND 1 incorporation was measured. […]

The next data set addresses T3, p300 (1-111) (Homo sapiens, UniProt Q09472).
T3 construct: 6xHis (C); HSV tag (C); expressed in transfected cells
The data set can be described thus: Pull-down of p300 deletion constructs on COMPOUND 2 coated beads, competition with excess COMPOUND 1. The data set is classed as binding. The note with it: E. coli expressed 6x-His protein, 100 μM COMPOUND 2. The method, then:
FIG. 2. The first 111 amino acids of CBP, but not p300, specifically bind COMPOUND 1. • A. Schematic representation of the wild-type and deletion constructs for CBP. • B. CBP (1-111) contains the minimal binding domain of COMPOUND 1. Expression levels of CBP deletion constructs in SW480 cells are shown (upper panel). 10 μg of total protein was subjected to gel electrophoresis and subjected to immunoblotting using anti-His antibodies. Whole cell lysates of SW480 cells expressing CBP deletion constructs were bound to streptavidin-agarose beads coated with 100 μM of COMPOUND 2. The bound fractions were subjected to gel electrophoresis and immunoblotting using anti-His antibodies (lower panel). Arrows point to constructs which remained bound to COMPOUND 2 coated beads. • C. […] CBP deletion constructs, CBP(1-111),CBP (1-211), and CBP (1-351) and p300 deletion constructs, p300 (1-111), p300 (1-211), and p300 (1-351) were transfected into SW480 cells. Whole cell lysates were incubated with streptavidin-agarose beads or streptavidin-agarose beads coated with 100 μM COMPOUND 2 (lower panel). The binding of CBP constructs (1-111,1-211, and 1-351) and p300 constructs (1-111,1-211, and 1-351) to the beads was challenged with excess COMPOUND 1 (150 μM). • D. CBP (1-111) binds to COMPOUND 1 in a phosphorylation independent manner. […]

The nature of data set [1]: Metabolism in rat liver microsome (HPLC/MS). To be noted: 5 minutes to 1 hour. The data set is classed as in vitro ADME. How it is done:
(§1) FIG. 10. Metabolism analysis of COMPOUND3 • A. The diode Array trace (upper panel) and the total ion current (lower panel) for COMPOUND3 and metabolites thereof in rat. • B. The diode Array trace (upper panel) and the total ion current (lower panel) for COMPOUND3 and metabolites thereof in human.
(§2) Metabolism of COMPOUND 3 was analyzed by incubating the compound with rat or human liver microsome for 5 minutes to 1 hour, fractioning extracts of treated microsome through HPLC and subjecting the fractions to MS analysis.
Background: Microsomes from liver hold many membrane-bound enzymes, among them those of drug oxidation.

Data set [2] can be described thus: Metabolism in human liver microsome (HPLC/MS). It counts as in vitro ADME. The note with it: 5 minutes to 1 hour. How it is done:
as §1, §2

The nature of data set [3]: Bioavailability study in rat. It counts as in vivo. To be noted: i.v and p.o, 10 mg/kg, 20% Tween 80. The method, then:
Bioavailability of COMPOUND 3, COMPOUND 4 and COMPOUND 5 was studied in mouse and rat. All the compounds were administered (i.v and p.o, 10 mg/kg) using the same vehicle (i.e., 20% Tween 80).

The test system of a further data set is HL60. To be noted: HL60, Leukemia. The method, then:
(§3) Cytotoxicity of COMPOUND 3 (an analog of COMPOUND 1, FIG. 1A) and other anticancer therapeutics were measured using cancer cells with various origins.

For another data set, the system named is MCF7. The note with it: MCF7, Breast. The method, then:
as §3

Another data set concerns A549. The note with it: A549, Lung. How it is done: as §3
For another data set, the system named is RPM17951. The note with it: RPM17951, Melanoma. The method, then:
as §3

A further data set relates to 293. To be noted: 293, Renal. How it is done: as §3
The next data set relates to PC3. The note with it: PC3, Prostate. How it is done:
as §3

For data set [4], the system named is nuclear β-catenin in SW480 cells. The data set can be described thus: β-catenin immunofluorescence and western blot localization in SW480 cells. To be noted: data not shown. The data set is classed as cell-based, human. The method, then:
FIG. 4. COMPOUND 1 decreases nuclear β-catenin • A. β-catenin immunofluorescence microscopy. Log phase SW480 (left) and HCT116 (right) cells were fixed and stained with either anti-β-catenin red (upper panel, A) or anti-CBP (upper panel, B) green. The center panel represents the superimposed β-catenin and CBP in SW480 (left) and HCT116 (right) cells. […] 25 μg of total protein from the cell extracts of SW480 cells with or without 24 hr treatment of COMPOUND1 was used for detection of cytosolic and nuclear β-catenin.
Immunofluorescence was used to examine the localization of CBP and β-catenin in SW480 and HCT116 cells treated with COMPOUND 1 (25 μM) or control (0.5% DMSO). Cells at log phase were seeded and after 24 hours, the cells were treated with COMPOUND 1 or control. 24 hours post treatment, cells were fixed. The coverslips were incubated with antibodies raised against CBP (A-22) (Santa Cruz Biotechnology) and β-catenin (Transduction Laboratories), respectively. The slides were examined using a Nikon PCM 2000 Laser Scanning Confocal Microscope after the secondary antibodies conjugated to either FITC or TRITC (Jackson ImmunoResearch, Westgrove, Pa.) were applied.
The subcellular distribution of β-catenin and CBP was examined in order to determine whether the localization of either was affected by COMPOUND 1. […]
A general note: A western blot detects proteins with antibodies after separation by electrophoresis.

T1 sequence (P45481 1-110): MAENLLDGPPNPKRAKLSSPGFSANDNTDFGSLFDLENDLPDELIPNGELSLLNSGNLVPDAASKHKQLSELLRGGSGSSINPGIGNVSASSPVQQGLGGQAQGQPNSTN
T3 sequence (Q09472 1-117): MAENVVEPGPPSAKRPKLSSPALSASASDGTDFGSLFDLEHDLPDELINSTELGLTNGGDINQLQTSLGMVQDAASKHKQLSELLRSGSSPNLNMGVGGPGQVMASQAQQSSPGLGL
T2 sequence (Q92793 whole entry): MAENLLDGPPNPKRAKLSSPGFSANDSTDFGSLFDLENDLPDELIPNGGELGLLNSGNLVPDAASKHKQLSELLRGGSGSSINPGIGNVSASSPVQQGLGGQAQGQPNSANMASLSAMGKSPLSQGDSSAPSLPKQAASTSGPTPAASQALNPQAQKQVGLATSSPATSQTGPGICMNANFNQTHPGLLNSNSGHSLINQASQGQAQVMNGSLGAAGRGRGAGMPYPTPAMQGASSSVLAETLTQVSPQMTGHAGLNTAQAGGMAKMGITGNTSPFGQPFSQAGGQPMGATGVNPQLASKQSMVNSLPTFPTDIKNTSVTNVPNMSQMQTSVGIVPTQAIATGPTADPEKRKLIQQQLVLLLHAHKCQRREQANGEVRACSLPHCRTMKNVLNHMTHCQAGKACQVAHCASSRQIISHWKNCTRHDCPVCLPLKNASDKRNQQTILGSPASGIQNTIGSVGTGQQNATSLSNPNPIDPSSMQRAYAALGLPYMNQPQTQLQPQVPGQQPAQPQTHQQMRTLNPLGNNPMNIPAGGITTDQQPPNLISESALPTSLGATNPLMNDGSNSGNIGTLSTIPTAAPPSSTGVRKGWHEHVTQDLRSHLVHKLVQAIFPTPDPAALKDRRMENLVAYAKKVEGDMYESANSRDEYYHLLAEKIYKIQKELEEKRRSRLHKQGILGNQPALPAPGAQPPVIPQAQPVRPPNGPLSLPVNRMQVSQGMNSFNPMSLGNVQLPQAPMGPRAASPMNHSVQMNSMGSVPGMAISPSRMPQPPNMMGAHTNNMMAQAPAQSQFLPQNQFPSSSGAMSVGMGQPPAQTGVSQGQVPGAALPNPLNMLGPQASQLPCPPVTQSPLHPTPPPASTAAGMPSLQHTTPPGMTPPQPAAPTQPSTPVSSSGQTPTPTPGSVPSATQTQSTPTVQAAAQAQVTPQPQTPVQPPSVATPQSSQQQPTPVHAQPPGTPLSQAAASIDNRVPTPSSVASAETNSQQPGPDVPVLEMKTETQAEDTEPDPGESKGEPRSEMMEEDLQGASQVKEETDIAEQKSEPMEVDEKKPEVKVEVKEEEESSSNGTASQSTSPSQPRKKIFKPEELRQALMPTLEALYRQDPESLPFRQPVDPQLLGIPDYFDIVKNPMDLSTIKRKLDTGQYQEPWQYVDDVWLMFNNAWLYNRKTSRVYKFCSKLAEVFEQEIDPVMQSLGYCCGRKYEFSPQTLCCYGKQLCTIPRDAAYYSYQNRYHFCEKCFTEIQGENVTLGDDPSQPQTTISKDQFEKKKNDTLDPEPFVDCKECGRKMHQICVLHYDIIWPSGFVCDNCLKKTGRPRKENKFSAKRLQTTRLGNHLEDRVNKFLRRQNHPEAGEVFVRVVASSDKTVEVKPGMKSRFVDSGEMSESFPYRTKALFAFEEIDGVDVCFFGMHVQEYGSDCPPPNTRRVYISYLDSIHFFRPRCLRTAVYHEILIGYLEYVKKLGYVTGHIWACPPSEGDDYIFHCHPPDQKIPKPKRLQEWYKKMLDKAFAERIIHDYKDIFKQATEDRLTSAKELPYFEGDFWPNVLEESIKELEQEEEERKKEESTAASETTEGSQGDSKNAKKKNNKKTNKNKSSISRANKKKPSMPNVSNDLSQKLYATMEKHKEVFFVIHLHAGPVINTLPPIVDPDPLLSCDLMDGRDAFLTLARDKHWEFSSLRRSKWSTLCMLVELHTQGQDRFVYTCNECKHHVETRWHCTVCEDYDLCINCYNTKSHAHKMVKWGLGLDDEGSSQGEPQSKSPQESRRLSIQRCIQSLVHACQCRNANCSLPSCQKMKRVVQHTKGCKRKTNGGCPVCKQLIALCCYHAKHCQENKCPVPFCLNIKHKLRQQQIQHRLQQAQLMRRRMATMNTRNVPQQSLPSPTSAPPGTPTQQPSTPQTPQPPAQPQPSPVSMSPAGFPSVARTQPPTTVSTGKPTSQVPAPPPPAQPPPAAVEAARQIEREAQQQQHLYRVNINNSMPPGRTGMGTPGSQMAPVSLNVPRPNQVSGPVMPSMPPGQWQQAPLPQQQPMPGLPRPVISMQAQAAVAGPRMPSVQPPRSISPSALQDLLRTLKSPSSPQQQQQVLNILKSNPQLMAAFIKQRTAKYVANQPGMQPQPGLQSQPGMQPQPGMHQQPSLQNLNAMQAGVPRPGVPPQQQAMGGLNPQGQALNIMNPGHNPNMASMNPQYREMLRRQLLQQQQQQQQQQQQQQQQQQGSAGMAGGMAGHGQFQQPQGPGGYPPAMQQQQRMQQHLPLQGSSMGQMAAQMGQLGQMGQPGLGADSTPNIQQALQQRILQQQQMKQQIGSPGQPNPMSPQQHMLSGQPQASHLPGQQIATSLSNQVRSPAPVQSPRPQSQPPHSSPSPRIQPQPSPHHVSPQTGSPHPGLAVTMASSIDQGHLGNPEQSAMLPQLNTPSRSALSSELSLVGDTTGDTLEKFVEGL

In the case of `O=C(CCCCCNC(=O)CCCCC1SCC2NC(=O)NC21)NCCCCCC(=O)NCc1cccc(CNC(=O)N2CCC(=O)N3C(Cc4ccc(O)cc4)C(=O)N(Cc4cccc5ccccc45)CC23)c1` (stereo not shown) [COMPOUND 2], the “Binding of purified CBP (1-111) to COMPOUND 2 beads” value on CBP (1-111) was “specific binding”. Moreover, the “Major band retained on COMPOUND 2 affinity column” value on CBP is on record as “identified by immunoblotting as the CREB Binding Protein (CBP)”. For the same compound, the “Binding of purified p300 (1-111) to COMPOUND 2 beads” value at p300 (1-111) was “not p300 (1-111)”.
As for `CN1CC(=O)N2C(Cc3ccc(O)cc3)C(=O)N(Cc3cccc4ccccc34)CC2N1C(=O)NCc1ccccc1` (stereo not shown) [COMPOUND 3], the Metabolites observed entry in data set [1] was “Several metabolites (e.g., M1, M2, M3) were observed”; in data set [2], “Several metabolites (e.g., M1, M2, M3) were observed”. Moreover, the Bioavailability result in data set [3] was “about 24%”. Further, the Cytotoxicity with HL60 was found to be 1.243 µg/mL; in the data set with MCF7, 7.355 µg/mL; in the data set on A549, 1.386 µg/mL; in the data set on RPM17951, 0.936 µg/mL; in the data set with 293, 0.731 µg/mL; in the data set on PC3, 1.207 µg/mL.
Consider `CCC(=C/[C@H](C)C/C=C/C(C)=C/[C@@H](C)C(=O)[C@@H](C)[C@H](O)[C@@H](C)C/C(C)=C/C(=O)O)/C=C/[C@@H]1OC(=O)C=C[C@@H]1C` [leptomycin B, reference compound], for which, in [4], the “Effect of nuclear transport inhibitor on COMPOUND 1-induced β-catenin transport” value is recorded as “eliminated COMPOUND 1-induced cytoplasmic transport of β-catenin”.
